Data set [1] in a line: Toxicokinetics after topical application on full-thickness wounds in minipigs. The data set is classed as in vivo, Gottingen SPF minipigs. Conditions: for AUC(0-t) / Cmax / half-life / Tmax: Gottingen SPF, minipig, plasma, topical or ocular, 2000 ug/day, topical 2000 μg/day (500 μg/g Gel), Day 6; for AUC(0-t): read-out: AUC24 h (Mean ± CV); for Cmax: read-out: Cmax (Mean ± CV); for half-life: read-out: T1/2 (Mean ± CV) (converted); for Tmax: read-out: Tmax (Mean ± CV). The text has this:
(§1) Testing of concentrations of 2-[2-(4-Chlorophenyl)ethoxy]adenosine in blood plasma: 2-[2-(4-Chlorophenyl)ethoxy]adenosine concentrations in blood plasma taken from a patient may be quantitated. A non-limiting example of an assay to quantitate 2-[2-(4-Chlorophenyl)ethoxy]adenosine in blood plasma is an HPLC/MS/MS bioanalytical assay. The assay used an organic precipitation of protein accomplished with addition of acetonitrile to plasma followed by a thorough mixing and centrifugation to separate the denatured protein and supernatant. Aliquots of the supernatant were injected onto a HPLC system equipped with a triple quadrapole mass spectrometer which provided highly specific and sensitive detection of the molecular ion of interest. Concentrations of 2-[2-(4-Chlorophenyl)ethoxy]adenosine were determined from peak area ratios of 2-[2-(4-Chlorophenyl)ethoxy]adenosine and the internal standard using weighted linear regression curves (1/×). The assay was highly robust and reproducible within the validated range of 1.0 to 100 ng/mL.
The objective of this study was to assess the local and the systemic toxicity of the 2-[2-(4-chlorophenyl)ethoxy]adenosine formulation of the instant invention. The testing occurred in Gottingen SPF minipigs. 20 μg/g, 100 μg/g and 500 μg/g concentration of the 2-[2-(4-chlorophenyl)ethoxy]adenosine formulation were created using the methods described in Example I. The 20 μg/g and 100 μg/g formulation are described below. The components of the 500 μg/g formulation and the placebo control were as described in Example 1.
The total dosage of 2-[2-(4-chlorophenyl)ethoxy]adenosine per minipig ranged from 80 μg to 2000 μg/day. The formulation was administered topically once per day in 1 mL (1 g) doses at 20 μg/g, 100 μg/g and 500 μg/g concentration per wound per administration on surgically established full-thickness wounds until wound closure. Each minipig had multiple (4) wounds that received treatment.
A total of 40 Gottingen SPF minipigs (20 males and 20 females) were included in the study. The animals were allocated into four groups each of 4 males and 4 females. In addition, 4 animals (2 of each sex per group), were included as recovery animals for the control/placebo group (Group 1) and the high-dose group (Group 4).
From Day 1 through Day 13, 2-[2-(4-chlorophenyl)ethoxy]adenosine formulation at either 20 μg/g, 100 μg/g or 500 μg/g concentration was applied topically on surgically established circular full-thickness wounds (wound diameter 20 mm; 4 wounds per animal) on a daily basis in a dose volume of approximately 1 mL per wound until wound closure. The dose levels and animal numbers are provided Table 20.
Toxicokinetic sampling occurred on Day 6 at the following time points: pre-treatment, and 0.5, 1, 3, 5, 7, 9, 12 and 24 hours post-treatment. […] Non-compartmental pharmacokinetic analysis of plasma 2-[2-(4-chlorophenyl)ethoxy]adenosine concentration profiles in Groups 2, 3, and 4 (low-, mid- and high-dose) animals yielded pertinent pharmacokinetic parameters, which are summarized by treatment and gender in Table 20.

Data set [2] in a line: Systemic absorption in patients (plasma HPLC/MS/MS assay). In kind it is in vivo, human. The note with it: any topical dose concentration (5, 50, 500 μg/g), initial, day 16 and day 28, LLOQ 1.0 ng/mL.
Text: as §1
2-[2-(4-Chlorophenyl)ethoxy]adenosine was administered to patients with chronic, neuropathic, diabetic foot ulcers (DFU). […]

For data set [3], the system named is wound. The note with it: healthy BALB/C mice; cited from earlier work.
Data set [4] has as its system wound. Conditions: rats; cited from earlier work.

Read-outs that look alike come from different tables or passages of the source.

Consider `Nc1nc(OCCc2ccc(Cl)cc2)nc2c1ncn2[C@@H]1O[C@H](CO)[C@@H](O)[C@H]1O` [2-[2-(4-chlorophenyl)ethoxy]adenosine], for which, in data set [1] (Female minipigs), the AUC(0-t) worked out at 6.65 ng·h/mL, the Cmax came out at 0.45 ng/mL, the half-life is 28.4 h and the Tmax turned out to be 7.5 h. Besides, in data set [1] (Male minipigs), the AUC(0-t) was found to be 7.25 ng·h/mL, the Cmax is 0.46 ng/mL, the half-life was 122 h and the Tmax came out at 7.8 h. Further, in data set [1] (minipigs, wound healing phase, 80-2000 μg/day), the “absorption into the systemic circulation from topical administration in open wounds” value is recorded as “minimal”. For the same compound, the “systemic absorption (blood plasma, HPLC/MS/MS assay)” value in data set [2] was “No systemic absorption”. Moreover, the wound healing result in data set [3] is recorded as “promote wound healing”.
`CCNC(=O)[C@H]1O[C@@H](n2cnc3c(N)nc(NCCc4ccc(CCC(=O)O)cc4)nc32)[C@H](O)[C@@H]1O` [CGS 21680, 2-[p-(carboxyethyl)phenylethylamino]-5′-N-ethylcarboxamidoadenosine]: the “rate of wound closure” value in data set [4] is on record as “increase the rate of wound closure”.

As a reminder, the Cmax is the maximum level reached in the sampled fluid or tissue. What is called Tmax is the time at which the peak concentration occurs.

(Values after US20110144027A1, “PHARMACEUTICAL COMPOSITIONS FOR PROMOTING WOUND HEALING” (priority 2006, published 2011).)
